1 compound from US9765029B2, “Pyridine compounds as sodium channel blockers” (Purdue Pharma L.P., priority 2010, dated 2017) can be followed below.

This assay deals with FCA-induced inflammation of the rat hind paw. In words: Freund's complete adjuvant (FCA) model of inflammatory pain, paw withdrawal threshold (PWT). It is filed as in vivo. How it is done:
Test Animals: Each experiment uses rats weighing between 200-260 g at the start of the experiment. The rats are group-housed and have free access to food and water at all times, except prior to oral administration of a test compound when food is removed for 16 hours before dosing. A control group acts as a comparison to rats treated with a compound of Formulae I-XIII. The control group is administered the carrier as used for the test compound. The volume of carrier administered to the control group is the same as the volume of carrier and test compound administered to the test group.
To assess the actions of the compounds of Formulae I-XIII on the treatment of inflammatory pain the Freund's complete adjuvant (“FCA”) model of inflammatory pain was used. […] 24 hour post injection, the animal was assessed for response to noxious mechanical stimuli by determining the paw withdrawal threshold (PWT), or to noxious thermal stimuli by determining the paw withdrawal latency (PWL), as described below. […] Responses to noxious mechanical or thermal stimuli were determined 1, 3, and 5 hours post administration (admin). […]
Sensitivity to noxious mechanical stimuli can be measured in animals using the paw pressure test to assess mechanical hyperalgesia. […] PWT is determined once for each rat at each time point. PWT can be measured only in the injured paw, or in both the injured and non-injured paw. […]

For `NC(=O)[C@H](CO)NC(=O)c1cccc(-c2ccc(Oc3ccc(F)cc3)cc2)n1` [Compound 47, 6-[4-(4-fluoro-phenoxy)-phenyl]-pyridine-2-carboxylic acid ((S)-1-carbamoyl-2-hydroxy-ethyl)-amide], the “increase in PWT” value by setting is: (10 mg/kg oral (PO), 3 h) “statistically significant increase”; (30 mg/kg oral (PO), 1, 3 and 5 h) “statistically significant increase”.
